Measured values reported in US12564591B2, “HCK as a therapeutic target in MYD88 mutated diseases” (Dana-Farber Cancer Institute, Inc., priority 2019, dated 2026).
“Also recorded” adds a separate entry of the source. Read-outs that look alike come from different tables or passages of the source.

Columns and labels:
[1] = tested on: primary MYD88 mutated bone marrow derived CD19-positive lymphoplasmacytic cells (LPCs) from WM patients; assay: Apoptosis of primary WM patient lymphoplasmacytic cells; assay type: cell-based, human
Method: (§1) The anti-tumor activity of Compound (I) was also assessed using primary MYD88 mutated bone marrow derived CD19-positive lymphoplasmacytic cells (LPCs) from WM patients, and compared effects against healthy donor CD19+ B-cells.

[2] = tested on: BTK and ERK 1/2 phosphorylation; details: vector only, and BTK^WT transduced BCWM.1 or TMD8 cells, 1.0 hour
HCK [3] = target: T1, HCK (Homo sapiens, UniProt P08631); assay: Enzymatic / biochemical kinase assay (SelectScreen, Life Technologies)
[4] = tested on: pBTK, pAKT, pERK1/2, and pSYK; assay: Western blot of downstream signaling in HCK^WT or HCK^T333M transduced BCWM.1 cells; assay type: cell-based
Description: (§2) An HCK gatekeeper mutant HCK^T333M was generated and rescue experiments performed in MYD88 mutated BCWM.1 cells. Expression of HCK^T333M produced a more than 20-fold increase in resistance to Compound (I) versus vector or wild-type HCK transduced BCWM.1 cells (FIG. 5A).

[5] = Survivability of treated subjects; assay type: in vivo; details: compared to subjects treated with other BTK inhibitors (e.g., ibrutinib, A419259)
[6] = Liver microsome stability; assay type: in vitro ADME; details: rat, liver microsomes
Plasma protein binding = assay type: in vitro ADME
Description: (§3) […]. […] […].

[7] = tested on: healthy donor CD19+ B-cells; assay: Apoptosis of healthy donor B-cells; assay type: cell-based, human
Method: as §1

[8] = Liver microsome stability; assay type: in vitro ADME; details: human, liver microsomes
HCK [9] = target: T1, HCK; assay: ATP-competitive pulldown assay (desthiobiotin-ATP probe, western blot) in live BCWM.1 and TMD8 cells; assay type: cell-based; parameters: purchased Life Technologies (SelectScreen); details: live cell pre-treatment
CYP2B6 = CYP2B6 (Homo sapiens, UniProt P20813); assay: In vitro CYP inhibition; assay type: in vitro ADME; parameters: dose or concentration left out as unconfirmed; details: at 10 PM, read-out: CYP inhibition (2B6)
Description: as §3

CYP2D6 = CYP2D6 (Homo sapiens, UniProt P10635); assay: In vitro CYP inhibition; assay type: in vitro ADME; parameters: dose or concentration left out as unconfirmed; details: at 10 PM, read-out: CYP inhibition (2D6)
Description: as §3

CYP2C19 = CYP2C19 (Homo sapiens, UniProt P33261); assay: In vitro CYP inhibition; assay type: in vitro ADME; parameters: dose or concentration left out as unconfirmed; details: at 10 PM, read-out: CYP inhibition (2C19)
Description: as §3

CYP2C8 = CYP2C8 (Homo sapiens, UniProt P10632); assay: In vitro CYP inhibition; assay type: in vitro ADME; parameters: dose or concentration left out as unconfirmed; details: at 10 PM, read-out: CYP inhibition (2C8)
Description: as §3

CYP1A = assay: In vitro CYP inhibition; assay type: in vitro ADME; parameters: dose or concentration left out as unconfirmed; details: at 10 PM; read-out: CYP inhibition (1A)
Description: as §3

CYP2C9 = CYP2C9 (Homo sapiens, UniProt P11712); assay: In vitro CYP inhibition; assay type: in vitro ADME; parameters: dose or concentration left out as unconfirmed; details: at 10 PM, read-out: CYP inhibition (2C9)
Description: as §3

[10] = Liver microsome stability; assay type: in vitro ADME; details: mouse, liver microsomes
[11] = tested on: HCK activation (pHCK^Y411); assay: pHCK by PhosFlow in HCK^WT or HCK^T333M transduced BCWM.1 cells; assay type: cell-based; details: HCK^T333M but not HCK^WT expressing BCWM.1 cells
Description: as §2

[12] = tested on: vector, HCK^WT or HCK^T333M transduced TMD8 ABC DLBCL cells; assay: HCK^T333M gatekeeper mutant rescue, dose-response 72 hours; assay type: cell-based
Method: Dose-responses of vector only or HCK^WT or HCK^T333M transduced […] cells following the treatment Compound (I) for 72 hours (FIG. 7A).

[13] = tested on: MYD88 mutated WM and ABC DLBCL cell lines versus MYD88 wild-type GCB DLBCL, Burkitt's Lymphoma, and multiple myeloma cell lines; assay: CellTiter-Glo cell viability, MYD88 mutated versus wild-type cell lines; assay type: cell-based
[14] = tested on: p-HCK and p-BTK in WM patients LPCs; assay: p-HCK and p-BTK by PhosFlow in MYD88 mutated WM patient bone marrow tumor cells; assay type: cell-based, human
Method: as §1

BTK [15] = target: T2, BTK (Homo sapiens, UniProt Q06187); assay: ATP-competitive pulldown assay (desthiobiotin-ATP probe, western blot) in live BCWM.1 and TMD8 cells; assay type: cell-based; details: live cell pre-treatment
hERG = hERG (Homo sapiens, UniProt Q12809); assay: hERG testing (patch clamp) for cardiotoxicity; assay type: cell-based; details: at 16 μM
Description: as §3

BTK [16] = target: T2, BTK; assay: Enzymatic / biochemical kinase assay (SelectScreen, Life Technologies); parameters: purchased Life Technologies (SelectScreen)
[17] = Liver microsome stability; assay type: in vitro ADME; details: dog, liver microsomes; dogs; read-out: half-life t1/2 with purified microsomes
LYN [18] = target: T3, LYN (Homo sapiens, UniProt P07948); assay: Enzymatic assay (SelectScreen, Life Technologies); assay type: biochemical
panel of 464 kinases = assay: KINOMEscan kinome selectivity profiling (DiscoverX); assay type: binding; details: for S(1) score / S(10) score: 1.0 μM, panel of over 460 kinases
Method: The compounds were profiled at a concentration of 1.0 μM against a panel of over 460 kinases by DiscoverX.

[19] = tested on: vector, HCK^WT or HCK^T333M transduced MWCL-1 WM cells; assay: HCK^T333M gatekeeper mutant rescue, dose-response 72 hours; assay type: cell-based
Method: Dose-responses of vector only or HCK^WT or HCK^T333M transduced MWCL-1 cells following the treatment Compound (I) for 72 hours (FIG. 6A).

[20] = Murine pharmacokinetics (intravenous and oral); assay type: in vivo; details: mouse, serum; for bioavailability: read-out: bioavailability (% F)
[21] = Tolerability study, daily oral dosing; assay type: in vivo; details: up to 75 mg/kg daily oral dosing, NOD-SCID mice dosed for >6 weeks, no adverse events observed
Description: as §3

[22] = tested on: vector, HCK^WT or HCK^T333M transduced BCWM.1 cells; assay: HCK^T333M gatekeeper mutant rescue, dose-response 72 hours; assay type: cell-based; details: versus vector or wild-type HCK transduced BCWM.1 cells
Description: as §2

[23] = tested on: kinases in TMD8 ABC DLBCL cells; assay: KiNativ live-cell target engagement profiling (desthiobiotin-ATP probe); assay type: cell-based
[24] = tested on: HCK phosphorylation at Thr^209; details: MYD88 mutated WM and ABC DLBCL cells
LYN [25] = target: T3, LYN; assay: ATP-competitive pulldown assay (desthiobiotin-ATP probe, western blot) in live BCWM.1 and TMD8 cells; assay type: cell-based; parameters: endogenous in cells; host or cells: BCWM.1 and TMD8 cells
[26] = tested on: Salmonella typhimurium tester strains (TA98, TA100, TA1535 and TA1537); assay: Ames genotoxicity testing; details: up to 50 μM with and without metabolic activation by rat liver S9 fraction
[27] = Pharmacokinetics of A419259 under oral administration
[28] = HCK^T333M expressing BCWM.1 cells
[29] = read-out: T1/2 in liver microsomes

T1 sequence (P08631 whole entry): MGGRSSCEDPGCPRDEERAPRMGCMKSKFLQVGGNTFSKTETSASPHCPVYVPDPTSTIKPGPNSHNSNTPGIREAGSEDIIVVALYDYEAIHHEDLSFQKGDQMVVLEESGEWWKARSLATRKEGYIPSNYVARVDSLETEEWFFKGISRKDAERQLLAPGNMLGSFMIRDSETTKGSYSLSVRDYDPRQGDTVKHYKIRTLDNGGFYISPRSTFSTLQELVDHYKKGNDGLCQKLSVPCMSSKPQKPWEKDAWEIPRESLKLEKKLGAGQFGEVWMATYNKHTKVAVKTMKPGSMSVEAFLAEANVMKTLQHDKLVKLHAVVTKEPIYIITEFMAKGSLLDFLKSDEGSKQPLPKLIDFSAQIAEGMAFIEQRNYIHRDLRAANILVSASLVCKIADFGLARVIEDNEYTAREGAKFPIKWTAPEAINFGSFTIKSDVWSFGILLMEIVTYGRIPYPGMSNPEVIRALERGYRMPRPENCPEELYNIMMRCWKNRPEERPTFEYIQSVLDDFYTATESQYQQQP
T2 sequence (Q06187 whole entry): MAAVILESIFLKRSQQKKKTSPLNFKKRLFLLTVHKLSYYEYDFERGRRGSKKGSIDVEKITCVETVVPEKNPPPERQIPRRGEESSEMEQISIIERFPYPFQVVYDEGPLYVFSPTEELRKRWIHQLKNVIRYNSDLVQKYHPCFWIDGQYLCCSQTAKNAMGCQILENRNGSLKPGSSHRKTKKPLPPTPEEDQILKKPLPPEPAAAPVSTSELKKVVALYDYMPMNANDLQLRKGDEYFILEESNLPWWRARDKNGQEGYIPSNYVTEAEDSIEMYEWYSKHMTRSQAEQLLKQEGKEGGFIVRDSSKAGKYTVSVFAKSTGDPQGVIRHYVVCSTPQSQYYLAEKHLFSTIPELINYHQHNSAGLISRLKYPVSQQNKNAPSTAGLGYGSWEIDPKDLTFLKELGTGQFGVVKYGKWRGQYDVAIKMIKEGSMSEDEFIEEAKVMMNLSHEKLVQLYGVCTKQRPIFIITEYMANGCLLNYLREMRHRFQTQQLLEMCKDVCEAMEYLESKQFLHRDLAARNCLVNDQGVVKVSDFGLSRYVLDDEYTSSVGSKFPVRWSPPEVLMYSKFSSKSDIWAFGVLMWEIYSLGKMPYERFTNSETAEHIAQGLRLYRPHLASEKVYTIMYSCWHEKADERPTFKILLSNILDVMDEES
T3 sequence (P07948 whole entry): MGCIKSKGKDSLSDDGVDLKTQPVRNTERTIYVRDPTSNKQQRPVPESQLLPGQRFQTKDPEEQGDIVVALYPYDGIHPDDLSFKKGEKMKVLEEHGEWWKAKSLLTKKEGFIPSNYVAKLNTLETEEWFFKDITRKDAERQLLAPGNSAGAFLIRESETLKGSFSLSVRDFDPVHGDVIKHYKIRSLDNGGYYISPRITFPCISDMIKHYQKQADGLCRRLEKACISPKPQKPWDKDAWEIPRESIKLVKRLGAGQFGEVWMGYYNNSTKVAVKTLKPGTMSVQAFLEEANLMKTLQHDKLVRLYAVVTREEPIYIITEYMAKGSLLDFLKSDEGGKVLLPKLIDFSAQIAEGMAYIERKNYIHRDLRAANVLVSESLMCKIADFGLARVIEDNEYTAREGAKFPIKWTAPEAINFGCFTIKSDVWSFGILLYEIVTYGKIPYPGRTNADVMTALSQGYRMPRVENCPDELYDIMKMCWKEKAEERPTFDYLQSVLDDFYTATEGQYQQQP
Sequence of CYP2C9 (P11712 whole entry): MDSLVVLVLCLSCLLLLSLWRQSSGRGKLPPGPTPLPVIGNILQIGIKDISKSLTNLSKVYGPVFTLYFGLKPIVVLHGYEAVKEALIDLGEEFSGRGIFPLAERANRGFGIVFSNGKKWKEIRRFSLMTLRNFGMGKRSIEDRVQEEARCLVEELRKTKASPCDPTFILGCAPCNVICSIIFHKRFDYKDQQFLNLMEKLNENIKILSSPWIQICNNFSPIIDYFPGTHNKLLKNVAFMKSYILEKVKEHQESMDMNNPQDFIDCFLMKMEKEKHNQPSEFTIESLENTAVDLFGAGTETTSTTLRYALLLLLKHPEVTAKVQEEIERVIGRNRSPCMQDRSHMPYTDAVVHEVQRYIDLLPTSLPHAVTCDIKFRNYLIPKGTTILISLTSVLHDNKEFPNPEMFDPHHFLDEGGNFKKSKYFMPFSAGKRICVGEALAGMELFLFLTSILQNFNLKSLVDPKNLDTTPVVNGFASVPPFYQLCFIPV
Sequence of CYP2C19 (P33261 whole entry): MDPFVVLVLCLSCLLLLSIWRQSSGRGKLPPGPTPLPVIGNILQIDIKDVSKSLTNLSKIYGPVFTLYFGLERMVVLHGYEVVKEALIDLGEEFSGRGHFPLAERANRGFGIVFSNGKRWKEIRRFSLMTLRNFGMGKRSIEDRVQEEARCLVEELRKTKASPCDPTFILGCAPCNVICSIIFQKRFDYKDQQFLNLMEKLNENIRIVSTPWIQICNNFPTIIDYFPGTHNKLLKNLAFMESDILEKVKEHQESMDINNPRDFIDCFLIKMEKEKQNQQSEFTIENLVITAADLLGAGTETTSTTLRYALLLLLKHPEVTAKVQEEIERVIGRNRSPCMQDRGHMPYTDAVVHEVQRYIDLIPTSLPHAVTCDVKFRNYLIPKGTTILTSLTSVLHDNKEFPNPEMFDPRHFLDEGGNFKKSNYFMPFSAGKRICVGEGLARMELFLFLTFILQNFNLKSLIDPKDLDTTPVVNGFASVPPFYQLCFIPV
Sequence of CYP2C8 (P10632 whole entry): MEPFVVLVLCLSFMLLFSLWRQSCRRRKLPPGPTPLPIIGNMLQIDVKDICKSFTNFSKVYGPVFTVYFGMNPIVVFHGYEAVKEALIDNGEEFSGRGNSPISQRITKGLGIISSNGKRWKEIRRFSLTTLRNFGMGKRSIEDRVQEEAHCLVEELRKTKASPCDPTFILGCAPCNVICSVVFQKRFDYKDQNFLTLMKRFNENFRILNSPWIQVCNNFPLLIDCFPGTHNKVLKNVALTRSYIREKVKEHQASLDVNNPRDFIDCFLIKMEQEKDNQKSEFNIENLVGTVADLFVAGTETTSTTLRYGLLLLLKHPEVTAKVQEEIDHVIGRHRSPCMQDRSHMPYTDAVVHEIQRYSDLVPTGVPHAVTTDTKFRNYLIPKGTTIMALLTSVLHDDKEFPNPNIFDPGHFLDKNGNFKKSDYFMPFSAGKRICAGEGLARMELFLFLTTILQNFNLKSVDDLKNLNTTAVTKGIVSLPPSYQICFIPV
Sequence of CYP2D6 (P10635 whole entry): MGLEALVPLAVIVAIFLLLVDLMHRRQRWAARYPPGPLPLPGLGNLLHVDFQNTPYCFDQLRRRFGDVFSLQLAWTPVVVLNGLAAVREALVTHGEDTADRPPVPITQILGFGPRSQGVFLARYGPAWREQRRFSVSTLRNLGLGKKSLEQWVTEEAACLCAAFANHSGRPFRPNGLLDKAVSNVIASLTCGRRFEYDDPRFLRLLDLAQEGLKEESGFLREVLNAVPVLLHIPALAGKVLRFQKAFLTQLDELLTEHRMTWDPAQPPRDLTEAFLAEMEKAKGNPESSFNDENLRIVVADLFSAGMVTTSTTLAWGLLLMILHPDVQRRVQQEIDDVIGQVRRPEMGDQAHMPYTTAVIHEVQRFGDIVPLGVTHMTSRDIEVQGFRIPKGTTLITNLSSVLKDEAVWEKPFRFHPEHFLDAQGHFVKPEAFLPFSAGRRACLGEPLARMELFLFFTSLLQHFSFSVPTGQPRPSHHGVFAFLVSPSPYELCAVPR
Sequence of hERG (Q12809 whole entry): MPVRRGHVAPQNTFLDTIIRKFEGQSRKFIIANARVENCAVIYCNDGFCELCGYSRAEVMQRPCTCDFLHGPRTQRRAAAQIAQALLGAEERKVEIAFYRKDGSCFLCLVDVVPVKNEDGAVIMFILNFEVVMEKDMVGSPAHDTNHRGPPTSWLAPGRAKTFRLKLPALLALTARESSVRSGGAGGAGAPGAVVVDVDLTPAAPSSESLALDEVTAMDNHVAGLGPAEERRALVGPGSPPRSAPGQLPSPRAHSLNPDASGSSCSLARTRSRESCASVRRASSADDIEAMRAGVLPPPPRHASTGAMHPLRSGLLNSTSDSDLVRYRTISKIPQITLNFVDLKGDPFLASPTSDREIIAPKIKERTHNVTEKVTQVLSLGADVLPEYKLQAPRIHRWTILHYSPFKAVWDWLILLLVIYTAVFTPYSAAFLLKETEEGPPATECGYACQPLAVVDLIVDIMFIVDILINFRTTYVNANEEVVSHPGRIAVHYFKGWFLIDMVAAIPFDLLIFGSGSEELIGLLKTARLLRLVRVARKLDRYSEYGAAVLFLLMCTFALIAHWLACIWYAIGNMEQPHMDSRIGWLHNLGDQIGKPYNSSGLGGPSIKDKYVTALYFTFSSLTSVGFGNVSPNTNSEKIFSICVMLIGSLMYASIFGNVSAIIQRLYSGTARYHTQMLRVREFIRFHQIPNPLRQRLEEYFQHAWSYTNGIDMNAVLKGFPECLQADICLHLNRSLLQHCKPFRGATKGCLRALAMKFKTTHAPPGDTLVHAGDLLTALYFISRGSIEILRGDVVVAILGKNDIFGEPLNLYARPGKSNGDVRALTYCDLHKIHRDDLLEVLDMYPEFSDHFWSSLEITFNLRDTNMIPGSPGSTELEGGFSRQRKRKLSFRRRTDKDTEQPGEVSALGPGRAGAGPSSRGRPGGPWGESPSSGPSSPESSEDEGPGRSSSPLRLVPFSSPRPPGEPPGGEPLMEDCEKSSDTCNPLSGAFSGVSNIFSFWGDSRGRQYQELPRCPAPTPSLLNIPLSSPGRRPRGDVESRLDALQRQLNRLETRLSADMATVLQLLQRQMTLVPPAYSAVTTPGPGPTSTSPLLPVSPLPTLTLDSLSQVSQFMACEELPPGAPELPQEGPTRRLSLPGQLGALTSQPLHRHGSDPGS

## CN1CCN(C2CCC(n3nc(-c4ccc(Oc5ccccc5)cc4)c4c(N)ncnc43)CC2)CC1 (stereo not shown) [Compound (I), 1-((1r,4r)-4-(4-methylpiperazin-1-yl)cyclohexyl)-3-(4-phenoxyphenyl)-1H-pyrazolo[3,4-d]pyrimidin-4-amine]
[1]
  apoptotic effect: robust apoptosis
[2]
  BTK and ERK 1/2 phosphorylation: effectively blocked
HCK [3]
  IC50s (in words): single-digit nanomolar
[4]; [28]
  attenuation of pBTK, pAKT, pERK1/2, and pSYK: abrogated
  pBTK: continued to show reduced activity
[4]; HCK^WT expressing BCWM.1 cells
  expression of pBTK, pAKT, pERK1/2, and p-SYK: blocked the expression of pBTK, pAKT, pERK1/2, and p-SYK in a dose dependent manner
[5]
  survivability: increased survivability
[6]; rats, read-out: half-life t1/2 with purified microsomes
  half-life: > 2 h
[6]; [29]
  half-life: ≥ 1 h
Plasma protein binding; dog, dogs
  fraction unbound: 0.05
Plasma protein binding; human, humans
  fraction unbound: 0.043
Plasma protein binding; mouse, mice
  fraction unbound: 0.023
Plasma protein binding; rat, rats
  fraction unbound: 0.045
[7]
  apoptotic effect: no apoptotic effect
[8]; humans, read-out: half-life t1/2 with purified microsomes
  half-life: 0.825 h
[8]; [29]
  half-life: ≥ 1 h
HCK [9]
  engagement of / binding to HCK: robust engagement; also recorded: very strongly binds
CYP2B6
  inhibition: 64.5%
CYP2D6
  inhibition: 24.9%
CYP2C19
  inhibition: 0.8%
CYP2C8
  inhibition: -3.8%
CYP1A
  inhibition: -27.9%
CYP2C9
  inhibition: -10.9%
[10]; mice, read-out: half-life t1/2 with purified microsomes
  half-life: 1.77 h
[10]; [29]
  half-life: ≥ 1 h
[11]
  HCK activation in the presence of compound: persistent activation of HCK
[12]
  effect of HCK^T333M on compound induced cell death: rescues Compound (I) induced cell death
[13]
  anti-tumor activity: targeted anti-tumor activity
[14]
  p-HCK and p-BTK levels: reduction of p-HCK(T209) and p-BTK^Y223
BTK [15]
  BTK inhibition / binding: effectively binds
hERG
  hERG cardiotoxicity (patch clamp): negative
BTK [16]
  IC50s (in words): single-digit nanomolar
[17]
  half-life: 1 h
LYN [18]
  IC50s (in words): single-digit nanomolar
Panel of 464 kinases
  S(1) score: 0.07
  S(10) score: 0.13
Panel of 464 kinases; panel of 464 kinases
  S10: 0.07
  S35: 0.13
  targeted kinases: mainly limited to the Src-family kinases HCK, BLK, LYN, and FRK, and the Tec-family kinase BTK
[19]
  effect of HCK^T333M on compound induced cell death: rescues Compound (I) induced cell death
[20]; intravenous, 2 mg/kg, read-out: in vivo clearance rate
  clearance: 17.4 mL/min/kg
[20]; po, 10 mg/kg, 10 mg/kg oral
  bioavailability: 49%
[20]; po, 25 mg/kg, 25 mg/kg oral
  bioavailability: 55%
[20]; po, orally at 10 mg/kg
  AUC: 5.2 µM·h
[20]; po, orally at 10 mg/kg and 25 mg/kg, read-out: T1/2
  half-life: 15.1 to 16.9 h
[20]; po, orally at 25 mg/kg
  AUC: 11.4 µM·h
[20]; 10 mg/kg oral, read-out: serum half-life (converted)
  half-life: 15.1 h
[20]; 25 mg/kg oral, read-out: serum half-life (converted)
  half-life: 16.9 h
[20]; intravenous administration (2 mg/kg), read-out: serum half-life (converted)
  half-life: 11.5 h
[21]
  tolerability: well-tolerated
[22]
  increase in resistance by expression of HCK^T333M: more than 20 fold
[23]
  activity against SRC-family kinases (HCK, BLK, LYN, FRK), Tec-family kinases (BTK), ACK (TNK2), CSK, ErbB2, and ABL: nanomolar activity
[23]; TMD8 ABC DLBCL cells treated at 1. μM
  target engagement (block of kinase binding to desthiobiotin-ATP probe): strongly targeted both HCK and BTK
[24]
  inhibition of HCK phosphorylation: robust inhibition
LYN [25]
  binding to LYN: very strongly binds
[26]
  Ames genotoxicity: negative

## CN1CCN([C@H]2CC[C@H](n3nc(-c4ccc(Oc5ccccc5)cc4)c4c(N)ncnc43)CC2)CC1 [Compound (I), 1-((1r,4r)-4-(4-methylpiperazin-1-yl)cyclohexyl)-3-(4-phenoxyphenyl)-1H-pyrazolo[3,4-d]pyrimidin-4-amine]
HCK [3]
  IC50: < 0.495 nM
BTK [16]
  IC50: 0.915 nM

## CN1CCN(C2CCC(n3cc(-c4ccc(Oc5ccccc5)cc4)c4c(N)ncnc43)CC2)CC1 (stereo not shown) [Compound A419259, reference compound]
[27]
  Tui2: 176.0 h
Panel of 464 kinases
  S(1) score: 0.07
  S(10) score: 0.13
